Measurements taken from EP0043811A1, “Indolo-naphthyridines and their use as medicaments” (OMNICHEM Société anonyme, priority 1980, dated 1982).

Experiments:
[1] = Acute toxicity (LD50) in mice, intravenous; conditions: mouse, in vivo, read-out: DL50 iv
Text: Les composés de l'invention ont été administrés sous forme de chlorhydrate par voie intraveineuse à des souris de souche Charles River. Les doses létales 50 % (DL50) ont été déterminées graphiquement selon la méthode de Lichtfield et Wilcoxon (J. Pharmacol.Exp. Thérap. […]).

[2] = system: souris, de souche Charles River; assay: Hypobaric anoxia test in mice (survival time); assay type: in vivo; conditions: ratio of DL50/DE50 of the product to DL50/DE50 of vincamine; DE50 = dose raising mean survival time by 50 %; p.o. 30 min before test; 190 mm Hg (5,25 % oxygen)
Procedure: Des souris de même sexe, de souche Charles River, pesant environ 20 + 2 g sont réparties en trois lots de 10 animaux. Les lots 1 et 2 comportent les animaux traités, c'est à dire ayant reçu la substance à tester de l'invention. Un troisième lot comporte des animaux témoins.
Les composés étudiés sont administrés p.o. 30 minutes avant l'essai. Les animaux sont placés dans une atmosphère appauvrie en oxygène par réalisation d'un vide partiel (190 mm Hg, correspondant à 5,25 % d'oxygène), ces conditions étant obtenues en 30 secondes). On mesure le temps de survie des souris au moyen d'un chronomètre. Les agents capables de favoriser l'oxygénation tissulaire et en particulier cérébrale, entraînent un accroissement du temps de survie et l'on peut exprimer par la dose efficace 50 % (DE50), la dose qui augmente de 50 % le temps de survie moyen des animaux placés dans les conditions décrites ci-dessus.
L'indice vincaminique correspond au rapport de la ^DL50/D^E50 du produit à la DL5ODE50 de la vincamine. Le tableau suivant rassemble les doses léthales et les indices vincaminiques observés pour divers composés de la présente invention.

[3] = system: chien anesthésié au Nembutal; assay: Haemodynamics and cerebral oxygen consumption in the dog anaesthetised with Nembutal; assay type: in vivo
Text: Chez le chien anesthésié au Nembutal, les composés de l'invention, en particulier Ib', augmentent les débits sanguins artériels des artères fémorales et vertébrales et stimulent de façon marquée (+ 50 %) la consommation apparente du cerveau en oxygène. L'effet sur la fréquence cardiaque est par ailleurs peu marqué, contrairement au cas de la vincamine.

[4] = system: ptose palpébrale induite par la réserpine; assay: Reserpine-induced palpebral ptosis test in mice; assay type: in vivo, souris; conditions: mouse
Text: Le canthène Ib s'est en outre révélé très actif au test à la ptose palpébrale induite par la réserpine che la souris. […] La combinaison des propriétés antianoxiques et antidépressives confèrent aux composés de l'invention un intérêt thérapeutique original.

[5] = system: monoamine oxydase; assay: Monoamine oxidase inhibitor (IMAO) character, method not described

| SMILES | LD50 [1] | ind.vincam. hypobare [2] | débits sanguins artériels des artères fémorales et vertébrales [3] | effet sur la fréquence cardiaque ([3]; stated in contrast to vincamine) | test à la ptose palpébrale induite par la réserpine [4] | caractéristique d'inhibiteur de monoamine oxydase (IMAO) [5] |
| --- | --- | --- | --- | --- | --- | --- |
| CCN1CCc2c3n(c4ccccc24)C(O)CCC31 (stereo not shown) [Exemple 2, Hydroxy-6 éthyl-3 1,2,3,3a,4,5 hexahydro 6H indolo (3, 2,1, -de) 1,5 naphtyridine] | 21 mg/kg | 2 |  |  |  |  |
| CCN1CCc2c3n(c4ccccc24)C=CCC31 (stereo not shown) [Exemple 3, Ethyl-3 tétrahydro-1,2,3,3a 4H indolo (3,2,1-de) 1,5 naphtyridine] | 46 mg/kg | 2 (Ib') | augmentent | peu marqué | très actif | aucune caractéristique d'inhibiteur de monoamine oxydase |
| CCN1CCc2c3n(c4ccccc24)CCCC31 (stereo not shown) [Exemple 4, Ethyl-3 hexahydro-1,2,3,3a,4,5-6H indolo (3,2,1-de) 1,5 naphtyridine] | 14 mg/kg | 2 |  |  |  |  |
